Measurements taken from patent publication US6761896B1, “Skin cosmetic care system and method” (Unilever Home & Personal Care USA, division of Conopco, Inc., priority 1998, dated 2004).

Legend:
[1] = tested on: pig skin dermis; test: DNA synthesis (3H-thymidine) of pig skin organ cultures, dermis; type: cell-based
Method: Freshly excised 2-3 week old piglet skins were obtained from Buckshire Farms, Pa. The pig skins were washed exhaustively first with soap and then with 10× antibiotic containing medium (penicillin, streptomycin). The pig skins were then dermatomed at 200 microns thickness. Seven (7) mm punch biopsies were made from these washed pig skins. The biopsies are then washed again with the 10× antibiotic medium and finally with normal DMEM (2 washes). Three (3) biopsies were incubated in each transwell plates, epidermal side up, with 1 ml of serum free DMEM fed from the bottom of the plates. Experiments were started 3 days after the biopsies were equilibrated under these conditions. Three (3) days after equilibrating the pig skin organ cultures prepared as described above, the medium was removed, 1 ml of fresh medium was added, and the wells were treated with different concentrations of lactic acid by adding from a 100 fold concentrated stock in water, directly into the medium. Simultaneous with the addition of lactic acid, selected cultures were also exposed to the South or North pole of a bar magnet or to the Bioflex magnet. The magnets were placed on top of the culture dish to expose the epidermis directly (the organ culture is carried out with the epidermis side on top). Three (3) days later, medium was changed, lactic acid was re-added, and 10 uCi ^3H-thymidine was added to each well. Plates were incubated for a further 24 hrs. At the end of the incubation period, biopsies were removed, washed in PBS for 1 hr with shaking, and incubated overnight in 10 ml of 2M sodium bromide with shaking to split the epidermis from the dermis. The biopsies were washed with PBS, and the epidermis was peeled off from dermis carefully using a scalpel. The epidermis and dermis were digested with 1 ml of 0.5N NaOH overnight at 50 C, 200 ul was used for counting the radioactivity. The DNA synthesis rate was calculated as cpm/7 mm punch biopsy for dermis or epidermis and in some experiments expressed also as % of controls. All organ culture experiments were conducted with at least 6 replicates, and the mean+/−standard deviation was calculated for statistical analysis using Students t-test. In example 7, dermal proliferation was measured as a function of lactic acid and magnetic pole treatment.

[2] = tested on: normal human keratinocytes; test: Keratinocyte proliferation measured by DNA content (monolayer cultures); type: cell-based
Method: The cells used in these studies are normal human keratinocytes and pig skin organ cultures. The normal human keratinocytes isolated from neonatal foreskins by trypsin treatment were growth in DME medium/5% fetal calf serum in the presence of mitomycin C treated 3T3 mouse fibroblasts of establishing dividing colonies. Keratinocytes were grown under these conditions until their third passage. For the experiments, third passage keratinocytes were plated into a serum-free keratincoyte growth medium (KGM; obtained form Clonetics, San Diego, Calif.) containing 0.15 mM calcium. Neonatal human fibroblasts were obtained from Clonetics and grown in Dulbecco's Minimum essential medium (DMEM) containing 10% fetal calf serum. Experiments were conducted in cells between passage numbers 4-10. Keratinocytes were plated in the middle 60 wells of 96 well plates (3000 cells/well). 24 hrs later, the plates were placed on top, in the middle of the magnet (bar or Bioflex) and grown for a further 4 days until the cells become 70-80% confluent. Medium was changed every 2 or 3 days. Control plates were placed on top of a nonmagnetic metal plate and the test plates were placed on top of the bar magnet (North or South side up) or in the middle of the Bioflex magnet. In some studies where the growth of cells were measured as a function of magnetic force, plates were placed on top of one another on top of the magnet such that the bottom plate is closest to the magnet (highest force) and the top plate is the furthest away from the magnet (lowest magnetic force). Studies to assess the effects of North and South magnets were carried out in different incubators to avoid the influence of one magnet on the other. After 4 days of growth, the plates were removed from the incubator, washed 2 times with phosphate buffered saline (PBS), and incubated with 100 ul of a bisbenzimide H 33258 solution (obtained from Calbiochem—stock solution was prepared at 1 mg/ml distilled water,'stored in dark at 4° C. for no longer than 1 week). After 15 min of incubation in the dark at room temperature, fluorescence was measured on a Millipore Cytofluor 2000b (ex/em=360/460 nm). The DNA content was calculated using a standard of calf thymus DNA and expressed as ug/well or as % of control wells which were not exposed to magnets. In all the studies using monolayer cultures mean+/−standard deviation of at least 24 different wells were used to calculate statistical significance using Students t-test. Example 3 evaluated the synergy between lactic acid and magnetic field in inducing the proliferation of keratinocytes. In this study, using in vitro keratinocyte cultures, 2 mM lactic acid increased proliferation by 5.4%. This increase was not statistically significant. […]

[3] = Example 7, dermis, LA + North pole
[4] = Example 7, dermis, LA + South pole

For `CC(O)C(=O)O` (stereo not drawn) [LA, lactic acid], the “DNA SYNTHESIS (CPM/BIOPSY) MEAN +/- STD” value ([1]; Example 7, dermis, 0.2 mM LA, no magnet) was 15306 +/− 4656 CPM/BIOPSY, the “DNA SYNTHESIS (CPM/BIOPSY) MEAN +/- STD” value [1, 3] was 16886 +/− 2227 CPM/BIOPSY and the “DNA synthesis AS % OF CONTROL” value [1, 3] was 178%. For the same molecule, the “DNA SYNTHESIS (CPM/BIOPSY) MEAN +/- STD” value [1, 4] was 17244 +/− 4259 CPM/BIOPSY, the “DNA synthesis AS % OF CONTROL” value [1, 4] was 182% and the “synergy of magnet with lactic acid in the dermis” value ([1]; Example 7, combinations of magnet with lactic acid) was “no synergy”. For the same molecule, the “effect on dermal proliferation” value ([1]; Example 7, lactic acid alone) was “significant stimulation”, the activity at 200 µM ([1]; Sus scrofa, Example 7, dermis, 0.2 mM LA, no magnet, read-out: DNA synthesis AS % OF CONTROL) was 162% and the “DNA content, Average” value ([2]; 2 mM lactic acid + BIOflex magnet) was 277. For the same molecule, the “stimulation of keratinocyte proliferation” value ([2]; 2 mM lactic acid in the presence of BIOflex magnet, statistically significant) was 15%, the “DNA content, Average” value ([2]; 2 mM lactic acid, no magnet) was 254 and the “increase in keratinocyte proliferation” value ([2]; 2 mM lactic acid, no magnet, not statistically significant) was 5.4%.
